From patent publication US20220008450A1, “ANTI-HEPATITIS B VIRUS AGENT” (DAIKIN INDUSTRIES, LTD., priority 2018, published 2022)

Key:
HBV = assay: Anti-HBV activity: intracellular HBV DNA by quantitative PCR in HepG2.2.15 cells; type: cell-based, hepatitis B virus; details: for EC50: Hepatitis B virus, 168 h, HepG2.2.15 cells, intracellular HBV DNA, day 7 after addition, read-out: EC50 (50% effective concentration), anti-HBV activity
Experimental: Anti-HBV activity was evaluated by quantitative PCR for determining the amount of HBV DNA in cells on the seventh day after the addition of the agent, using the HepG2.2.15 cell line of HBV-producing cells obtained by introducing a gene having a length twice that of the HBV genome into the human liver cancer cell line HepG2. For PCR of HBV DNA, a forward primer (HBV-S190F; 5′-GCT CGT GTT ACA GGC GGG-3′: SEQ ID NO: 1) and a reverse primer (HBV-S703R; 5′-GAACCACTGAACAAATGGCACTAGTA-3′: SEQ ID NO: 2) were used. PCR was performed by carrying out a reaction at 95° C. for 10 sec, 62° C. for 10 sec, and 72° C. for 30 sec for 35 cycles.
Specifically, HepG2.2.15 cells were seeded at a concentration of 1×10^5 cells/well. 24 hours later, the compounds of Example 1 and Comparative Example 1 were diluted to have a concentration of 0, 0.49, 0.97, 1.95, 3.90, 7.81, 15.6, 31.3, 62.5, 125, 250, 500, and 1000 nM; and added to the cells. After the cells were cultured for 7 days, each cytoplasmic compartment was collected, and DNA was purified by phenol-chloroform extraction. 20 ng of the purified DNA was used to measure the amount of intracellular HBV DNA by quantitative PCR.
The EC50 (50% effective concentration) was calculated from a graph showing the relationship between the concentration of the compound and anti-HBV activity.

[1] = Cytotoxicity test (WST-1) in HepG2 NTCP-myc cells; type: cell-based; details: human, 7 days culture, read-out: CC50 (50% cytotoxic concentration)
Experimental: HepG2 NTCP-myc cells were seeded at a concentration of 2×10^4 cells/well. 24 hours later, agents were diluted to have a concentration of 0, 0.49, 0.97, 1.95, 3.90, 7.81, 15.6, 31.3, 62.5, 125, 250, 500, and 1000 nM; and added to the cells. The HepG2 NTCP-myc cells were cultured for 7 days. After the culture, 10 μl of Premix WST-1 Cell Proliferation Assay System (TaKaRa) was added, and the cells were cultured at 37° C. for 2 hours. Thereafter, absorbance was determined at 450 nm using a microplate reader.
The CC50 (50% cytotoxic concentration) was calculated from a graph showing the relationship between the concentration of the compound and cytotoxicity.

HBs antigen = HBs antigen level in HepG2.2.15 culture supernatant by CLIA; type: cell-based, hepatitis B virus; details: day 4 after addition, compared to Entecavir and Tenofovir disoproxil fumarate (FIG. 2)
Experimental: The HBs antigen level was measured by measuring the culture supernatant on the fourth day after the addition of the agent by chemiluminescent immunoassay (CLIA) using HepG2.2.15, i.e., HBV-producing cells obtained by introducing a gene having a length twice that of the HBV genome into the human liver cancer cell line HepG2.

SMILES: OC[C@H]1O[C@@H](n2cnc3c(Cl)nc(Cl)nc32)[C@@H](F)[C@@H]1O [Comparative Example 1, 2,6-dichloro-9-((2R,3S,4R,5R)-3-fluoro-4-hydroxy-5-(hydroxymethyl)tetrahydrofuran-2-yl)-9H-purine, reference compound]
- EC50 (HBV): > 10 µM

SMILES: Nc1nc(F)nc2c1ncn2[C@@H]1O[C@H](CO)C(O)C1F (stereo partly drawn) [Example 1, 2′-deoxy-2′-fluoro-β-2-fluoro-D-adenosine]
- CC50 at 7 days [1]: 337 µM
- HBs antigen level (relative amount of extracellular HBs antigen) (HBs antigen): remarkably reduced
- SI (CC50/EC50) (HBV; CC50 (HepG2 NTCP-myc) divided by EC50 (HepG2.2.15)): 213411
- EC50 (HBV): 0.00158 µM
